# Assay results taken from US12011431B2, “Pharmaceutical composition for preventing or treating sensorineural hearing loss, containing forskolin and retinoic acid as active ingredients” (AJOU UNIVERSITY INDUSTRY-ACADEMIC COOPERATION FOUNDATION, priority 2018, dated 2024).
# Experiments:
# [1] = system: tumor-induced ototoxic hearing loss animal model; assay: Auditory brainstem response (ABR) test in tumor-induced ototoxic hearing loss animal model; assay type: in vivo, Balb/c/nu/nu mice; details: 1 week after 2 weeks of administration, cisplatin 12 mg/kg 5 times a week, forskolin 2.5 mg/kg 6 times a week
# Procedure: In order to exclude mice having congenitally abnormal hearing, a preliminary hearing test was performed on all mice before the experiment. An auditory brainstem response (ABR) test was conducted on the immunodeficient Balb/c/nu/nu mice and then a lung cancer cell line (A549) was xenografted subcutaneously into the mice to produce a tumor-induced animal model (FIG. 1).
# (§1) The produced tumor-induced animal model was classified into (1) a physiological saline group (Vehicle), (2) a forskolin administration group (forskolin), (3) a cisplatin administration group (cisplatin), and (4) a cisplatin+forskolin combination administration group (cisplatin+forskolin), and each drug was administered to each group. Cisplatin was administered at 12 mg/kg 5 times a week, forskolin was administered at 2.5 mg/kg 6 times a week for a total of 2 weeks, the auditory brainstem response test was performed again 1 week after all administration was completed, and hematoxylin-eosin staining was performed for histological analysis. The auditory brainstem response (ABR) test is a method that determines the minimum stimulus level (dB) as a hearing threshold when applying tone burst sounds at 16 kHz and 32 kHz using a TDT ABR device.
# [2] = system: lung cancer cell line (A549) xenograft; assay: Cisplatin anticancer effect in tumor-induced animal model (tumor size); assay type: in vivo, Balb/c/nu/nu mice; details: intraperitoneal for 5 days, then reared for 7 days
# Procedure: In order to exclude mice having congenitally abnormal hearing, a preliminary hearing test was performed on all mice before the experiment. An auditory brainstem response (ABR) test was conducted on the immunodeficient Balb/c/nu/nu mice and then a lung cancer cell line (A549) was xenografted subcutaneously into the mice to produce a tumor-induced animal model (FIG. 1). After tumor formation in the tumor-induced ototoxic hearing loss animal model of Example 1, mice were randomly classified, and then (1) physiological saline (vehicle), (2) forskolin, (3) cisplatin or (4) a combination of cisplatin and forskolin was administered intraperitoneally to the mice for 5 days, and then the mice were reared for 7 days. The average tumor volume and body weight of each group were measured every week (FIGS. 4A and 4B). In addition, the weight of each of the extracted tumor and kidney was also measured (FIG. 4E).
# [3] = system: auditory hair cells, supporting cells and spiral ganglion cells in the organ of Corti; assay: Hematoxylin-eosin staining of the cochlea in tumor-induced ototoxic hearing loss animal model; assay type: in vivo, Balb/c/nu/nu mice; details: basal and middle turns of the cochlea; forskolin given with cisplatin
# Procedure: as §1, with “device. In addition, loss and damage of the auditory hair cells, supporting cells and spiral ganglion cells in the organ of Corti during the basal and middle turns of the cochlea were evaluated using hematoxylin-eosin staining.” for “device.”
# auditory hair cells = assay: Histological examination of the cochlea in conventional ototoxic hearing loss animal model; assay type: in vivo, SD (Sprague-Dawley) rats; details: basal and middle turns in the cochlea; cisplatin 16 mg/kg i.p.; forskolin intratympanic; after 5 days
# Procedure: In order to exclude mice having congenitally abnormal hearing, a preliminary hearing test was performed on all mice before the experiment. An auditory brainstem response (ABR) test was conducted on 7-week-old SD (Sprague-Dawley) rats and then 16 mg/kg/7 ml of a cisplatin anticancer drug was administered intraperitoneally once to induce ototoxic hearing loss (FIG. 2). Before and after cisplatin administration, forskolin was intratympanically injected (IT) into one ear once in an amount of 25 μM in 20 μL a total of two times, and physiological saline containing DMSO as a control group was injected into the other ear. After 5 days, an auditory brainstem response (ABR) test and a histological examination were performed to evaluate the effect of preventing induction of forskolin-cAMP activity against ototoxic hearing loss.
# HEI-OCl cells = assay: Inhibition of cisplatin-induced apoptosis in auditory cell line (calcein AM, cleaved PARP and caspase 3); assay type: cell-based; details: cisplatin 25 μM
# Procedure: An auditory cell line expressing auditory genes (HEI-OCl; House-Ear Institute-organ of Corti 1) was used, and the HEI-OCl cells were incubated in DMEM medium (Dulbecco's modified Eagle's Medium) containing a high concentration of glutamine, supplemented with 10% fetal bovine serum (FBS) and 25 U/ml of interferon gamma at 33° C. and 10% CO2. The cells were treated with cisplatin at a concentration of 25 μM, and the effects of forskolin and retinoic acid were analyzed under conditions in which about 40 to 50% of cells were killed by cisplatin ototoxicity. In order to analyze the effects of forskolin and retinoic acid on ototoxicity, experimental groups were classified into (1) normal, (2) forskolin, (3) retinoic acid, (4) cisplatin, (5) cisplatin+forskolin, (6) cisplatin+retinoic acid, (7) cisplatin+forskolin+retinoic acid. Cisplatin was administered in an amount of 25 μM, forskolin was administered in an amount of 20 μM, and retinoic acid was administered in an amount of 50 μM. Then, viable cells were observed using calcein AM, a fluorescent stain applicable to live cells, and cleaved PARP and caspase 3, as apoptosis markers, were identified at the protein level.
structure (smiles),measurement,setting,value
"N.N.[Cl][Pt][Cl] [cisplatin, cis-diaminedichloroplatinum (II)]",hearing threshold (ABR),[1]; 16 kHz,29 dB
same,hearing threshold (ABR),[1]; 32 kHz,31 dB
same,effect of reducing a tumor size compared to the control group,[2],about 50%
same,loss and damage of auditory outer hair cells (hematoxylin-eosin staining),[3],a number of the auditory outer hair cells during the basal and middle turns were found to be lost
same,loss of auditory hair cells (histological examination),auditory hair cells,loss of a number of auditory hair cells
same,cells killed by cisplatin ototoxicity,HEI-OCl cells,40 to 50%
same,"cell viability / apoptosis (calcein staining, cleaved PARP and caspase 3)","HEI-OCl cells; forskolin 20 μM, retinoic acid 50 μM",apoptosis of cisplatin-induced auditory cell lines was observed
